Source: US20240299562A1 (priority 2020, published 2024)
Read-outs that look alike come from different tables or passages of the source. Where a SMILES comes first, the peptide text is derived from it.

Legend:
[1] = WST-1 cell viability, normal HME-1 cells; assay type: cell-based, human; settings: human; HME-1 normal cells; 72 hrs, WST-1 (Table 2); read-out: Maximal efficacy, cytotoxicity (%) at 100 μM
Description: (§1) All commercial cell lines were purchased at ATCC (LGC Standards SARL, France). Cells were seeded in 96-well plates according to their optimal seeding density, varying between 5.000 and 10.000 cells/well. After attachment overnight, 10-point serial titrations (1:5) were prepared in their equivalent complete media as recommended by ATCC, starting from the 10 mM stock solutions. For doxorubicin comprising prodrugs dilutions started from 100 μM, while for the parent compound doxorubicin dilutions started at 10 μM. […] Seventy-two hours later, compounds were removed together with the supernatants and cells were washed once with PBS to remove excess drugs.
(§2) The WST-1 assay for cell proliferation and viability (Roche, Switzerland) was performed according to manufacturer's protocol. Absorbances were measured at 4 hrs using a Perkin Elmer Ensight multiplate reader, equipped with Kaleido 2.0 software (Perkin Elmer, USA). Cell viability was expressed as a percentage compared to non-treated cells. Absolute IC50 values were extrapolated from a non-linear fitting following the Sigmoidal-4PL regression method using Graphpad Prism 7.0. Likewise, maximal efficacy was determined as 100% minus the cell viability determined when cells are incubated in the presence of a compound. For instance, if 20% of the cells survive incubation in the presence of a compound, then the maximal efficacy of that compound is 100%-20%=80%.
(§3) Selectivity indices (SI) were defined as the ratio of the concentration of drug required to kill 50% of the cells in normal (control, non-cancer) cells, divided by the concentration required to exert the same efficacy in tumor cells: SI=IC50 (control cell)/IC50 (cancer cell), or SI=^HME-1IC50/cancer IC50.

HME-1 cells = test: WST-1 cell viability, normal HME-1 cells; assay type: cell-based, human; settings: for IC50: HME-1 normal cells, 72 hrs continuous drug exposure, WST-1 (Table 1), read-out: Absolute IC50
Description: as §1, §2, §3

[2] = tested on: U87 MG glioblastoma cells subcutaneously implanted in nude NMRI mice; test: In vivo activity of PhAc-ALLP-Dox on U87 MG glioblastoma xenograft; set-up: species or system mouse; settings: 154 mg/kg iv, once per week
Description: The in vivo efficacy of PhAc-ALLP-Dox was tested in a mouse GBM model. U87 MG glioblastoma cells were subcutaneously (SC) implanted in nude NMRI mice. In total, 32 adult (9-10 weeks old) nude female NMRI mice (Janvier, France) were subjected to SC tumor cell grafting in the right flank. In total, 5×10^6 U87 MG cells resuspended in PBS plus Matrigel (1:1) were injected in 200 uL final volume. As soon as the tumors were palpable and reached the volume of 200 mm3 the treatment was started. At day zero, mice were randomly divided into 4 groups, based on the tumor volume, in order to have the following experimental sub-cohorts: • control group receiving the vehicle (PBS pH7.2) with a dose of 5 ml/kg, intravenously (iv), once per week (QW); • PhAc-ALLP-Dox (30 mg/kg iv, QW); • PhAc-ALGP-Dox (154 mg/kg iv, QW); • Dox (5 mg/kg iv, QW).
Treatments were performed once per week for a total of four tail vein administrations/injections (on days 1, 7, 14 and 21). One extra week of observation followed the active treatment phase. During the experiment, tumor volume was measured two times a week and was assessed three-dimensionally with a digital caliper (Mitutoyo, Illinois) using the following formula:
V=4/3π×[(d/2)^2×(D/2)], where d is the minor tumor axis and D is the major tumor axis.

A-172 cells = test: WST-1 cell viability, A-172 glioblastoma cells; assay type: cell-based
Description: as §1, §2, §3

HCT-116 cells = test: WST-1 cell viability, HCT-116 colorectal cancer cells; assay type: cell-based
Description: as §1, §2, §3

MDA-MB-231 cells = test: WST-1 cell viability, MDA-MB-231 triple negative breast cancer cells; assay type: cell-based
Description: as §1, §2, §3

U-87 MG cells = test: WST-1 cell viability, U-87 MG glioblastoma cells; assay type: cell-based
Description: as §1, §2, §3

A2780 Cp cells = test: WST-1 cell viability, A2780 CpR (cisplatin resistant) ovarian cancer cells; assay type: cell-based
Description: as §1, §2, §3

DU145 cells = test: WST-1 cell viability, DU145 prostate cancer cells; assay type: cell-based
Description: as §1, §2, §3

NCI-H292 cells = test: WST-1 cell viability, NCI-H292 lung cancer cells; assay type: cell-based
Description: as §1, §2, §3

cancer cell lines = test: In vitro potency and selectivity across a variety of cancer indications (WST-1); assay type: cell-based; settings: 72 hrs
Description: as §1
as §2, with “For instance, if 20% of the cells survive incubation in the presence of a compound, then the maximal efficacy of that compound is 100%-20%=80%.” left out

LS 174T cells = test: WST-1 cell viability, LS 174T colorectal cancer cells; assay type: cell-based
Description: as §1, §2, §3

NCI-1299 cells = test: WST-1 cell viability, NCI-H1299 lung cancer cells; assay type: cell-based
Description: as §1, §2, §3

A2058 cells = test: WST-1 cell viability, A2058 melanoma cells; assay type: cell-based
Description: as §1, §2, §3

MIA PaCa-2 cells = test: WST-1 cell viability, MIA PaCa-2 pancreatic cancer cells; assay type: cell-based
Description: as §1, §2, §3

MDA-MB-468 cells = test: WST-1 cell viability, MDA-MB-468 triple negative breast cancer cells; assay type: cell-based
Description: as §1, §2, §3

A2780 cells = test: WST-1 cell viability, A2780 ovarian cancer cells; assay type: cell-based
Description: as §1, §2, §3

[3] = cited from earlier work
[4] = chronic treatment in rats, doses up to 8-fold higher; cited from earlier work
[5] = in dogs; cited from earlier work
[6] = in mice; cited from earlier work

SMILES: COc1cccc2c1C(=O)c1c(O)c3c(c(O)c1C2=O)C[C@@](O)(C(=O)CO)C[C@@H]3O[C@H]1C[C@H](NC(=O)[C@@H]2CCCN2C(=O)CNC(=O)[C@H](CC(C)C)NC(=O)[C@H](C)NC(=O)CP(=O)(O)O)[C@H](O)[C@H](C)O1 [PhAc-ALGP-Dox, reference compound] (HELM PEPTIDE1{[O=C(CP(=O)(O)O)[*:2]].A.L.G.P.[COc1cccc2c1C(=O)c1c(O)c3c(c(O)c1C2=O)C[C@@](O)(C(=O)CO)C[C@@H]3O[C@H]1C[C@H](N[*:1])[C@H](O)[C@H](C)O1]}$$$$V2.0)
- cytotoxicity at 72 h, 100 µM [1]: 31.2%
- IC50 (HME-1 cells): > 100 µM
- Tumor growth [2]: significantly reduced tumor growth

SMILES: COc1cccc2c1C(=O)c1c(O)c3c(c(O)c1C2=O)C[C@@](O)(C(=O)CO)C[C@@H]3O[C@H]1C[C@H](NC(=O)[C@@H]2CCCN2C(=O)[C@H](CCCCN)NC(=O)[C@@H]2CCCN2C(=O)[C@H](C)NC(=O)CP(=O)(O)O)[C@H](O)[C@H](C)O1 [PhAc-APKP-Dox] (HELM PEPTIDE1{[O=C(CP(=O)(O)O)[*:2]].A.P.K.P.[COc1cccc2c1C(=O)c1c(O)c3c(c(O)c1C2=O)C[C@@](O)(C(=O)CO)C[C@@H]3O[C@H]1C[C@H](N[*:1])[C@H](O)[C@H](C)O1]}$$$$V2.0)
- SI = HME-1 IC50/cancer IC50 (A-172 cells; A-172 (GBM) vs HME-1 (Table 3)): 0.49
- IC50 (A-172 cells; A-172 (GBM), 72 hrs, WST-1 (Table 1), read-out: Absolute IC50): 36.9 µM
- Maximal efficacy, cytotoxicity (%) at 100 μM (A-172 cells; A-172 (GBM), 72 hrs, WST-1 (Table 2)): 91.93%
- SI = HME-1 IC50/cancer IC50 (HCT-116 cells; HCT-116 (CrC) vs HME-1 (Table 3)): 1.47
- IC50 (HCT-116 cells; HCT-116 (CrC), 72 hrs, WST-1 (Table 1), read-out: Absolute IC50): 12.3 µM
- Maximal efficacy, cytotoxicity (%) at 100 μM (HCT-116 cells; HCT-116 (CrC), 72 hrs, WST-1 (Table 2)): 81.05%
- SI = HME-1 IC50/cancer IC50 (MDA-MB-231 cells; MDA-MB-231 (TNBC) vs HME-1 (Table 3)): 8.49
- IC50 (MDA-MB-231 cells; MDA-MB-231 (TNBC), 72 hrs, WST-1 (Table 1), read-out: Absolute IC50): 2.13 µM
- Maximal efficacy, cytotoxicity (%) at 100 μM (MDA-MB-231 cells; MDA-MB-231 (TNBC), 72 hrs, WST-1 (Table 2)): 89.12%
- cytotoxicity at 72 h, 100 µM [1]: 81.5%
- SI = HME-1 IC50/cancer IC50 (HME-1 cells; HME-1 normal cells against themselves (Table 3)): 1.00
- IC50 (HME-1 cells): 18.1 µM
- SI = HME-1 IC50/cancer IC50 (U-87 MG cells; U-87 MG (GBM) vs HME-1 (Table 3)): 1.46
- IC50 (U-87 MG cells; U-87 MG (GBM), 72 hrs, WST-1 (Table 1), read-out: Absolute IC50): 12.4 µM
- Maximal efficacy, cytotoxicity (%) at 100 μM (U-87 MG cells; U-87 MG (GBM), 72 hrs, WST-1 (Table 2)): 88.38%
- SI = HME-1 IC50/cancer IC50 (A2780 Cp cells; A2780 Cp (OvC) vs HME-1 (Table 3)): 1.62
- Maximal efficacy, cytotoxicity (%) at 100 μM (A2780 Cp cells; A2780 Cp (OvC), 72 hrs, WST-1 (Table 2)): 74.61%
- IC50 (A2780 Cp cells; A2780 Cp (OvC, cisplatin resistant), 72 hrs, WST-1 (Table 1), read-out: Absolute IC50): 11.2 µM
- SI = HME-1 IC50/cancer IC50 (DU145 cells; DU145 (PrC) vs HME-1 (Table 3)): 2.02
- IC50 (DU145 cells; DU145 (PrC), 72 hrs, WST-1 (Table 1), read-out: Absolute IC50): 8.93 µM
- Maximal efficacy, cytotoxicity (%) at 100 μM (DU145 cells; DU145 (PrC), 72 hrs, WST-1 (Table 2)): 91.93%
- SI = HME-1 IC50/cancer IC50 (NCI-H292 cells; NCI-H292 (NSCLC) vs HME-1 (Table 3)): 0.70
- IC50 (NCI-H292 cells; NCI-H292 (NSCLC), 72 hrs, WST-1 (Table 1), read-out: Absolute IC50): 25.9 µM
- Maximal efficacy, cytotoxicity (%) at 100 μM (NCI-H292 cells; NCI-H292 (NSCLC), 72 hrs, WST-1 (Table 2)): 63.26%
- Potency range against cancer cells (cancer cell lines): within the micromolar range
- SI = HME-1 IC50/cancer IC50 (LS 174T cells; LS 174T (CrC) vs HME-1 (Table 3)): 1.23
- IC50 (LS 174T cells; LS 174T (CrC), 72 hrs, WST-1 (Table 1), read-out: Absolute IC50): 14.7 µM
- Maximal efficacy, cytotoxicity (%) at 100 μM (LS 174T cells; LS 174T (CrC), 72 hrs, WST-1 (Table 2)): 53.72%
- SI = HME-1 IC50/cancer IC50 (NCI-1299 cells; NCI-1299 (NSCLC) vs HME-1 (Table 3)): 1.72
- IC50 (NCI-1299 cells; NCI-1299 (NSCLC), 72 hrs, WST-1 (Table 1), read-out: Absolute IC50): 10.5 µM
- Maximal efficacy, cytotoxicity (%) at 100 μM (NCI-1299 cells; NCI-1299 (NSCLC), 72 hrs, WST-1 (Table 2)): 75.52%
- SI = HME-1 IC50/cancer IC50 (A2058 cells; A2058 (Melanoma) vs HME-1 (Table 3)): 3.69
- IC50 (A2058 cells; A2058 (Melanoma), 72 hrs, WST-1 (Table 1), read-out: Absolute IC50): 4.9 µM
- Maximal efficacy, cytotoxicity (%) at 100 μM (A2058 cells; A2058 (Melanoma), 72 hrs, WST-1 (Table 2)): 96.27%
- SI = HME-1 IC50/cancer IC50 (MIA PaCa-2 cells; MIA PaCa-2 (PaC) vs HME-1 (Table 3)): 0.40
- IC50 (MIA PaCa-2 cells; MIA PaCa-2 (PaC), 72 hrs, WST-1 (Table 1), read-out: Absolute IC50): 45.7 µM
- Maximal efficacy, cytotoxicity (%) at 100 μM (MIA PaCa-2 cells; MIA PaCa-2 (PaC), 72 hrs, WST-1 (Table 2)): 77.65%
- SI = HME-1 IC50/cancer IC50 (MDA-MB-468 cells; MDA-MB-468 (TNBC) vs HME-1 (Table 3)): 4.02
- IC50 (MDA-MB-468 cells; MDA-MB-468 (TNBC), 72 hrs, WST-1 (Table 1), read-out: Absolute IC50): 4.49 µM
- Maximal efficacy, cytotoxicity (%) at 100 μM (MDA-MB-468 cells; MDA-MB-468 (TNBC), 72 hrs, WST-1 (Table 2)): 91.83%
- SI = HME-1 IC50/cancer IC50 (A2780 cells; A2780 (OvC) vs HME-1 (Table 3)): 21.13
- IC50 (A2780 cells; A2780 (OvC), 72 hrs, WST-1 (Table 1), read-out: Absolute IC50): 0.86 µM
- Maximal efficacy, cytotoxicity (%) at 100 μM (A2780 cells; A2780 (OvC), 72 hrs, WST-1 (Table 2)): 87.34%

SMILES: COc1cccc2c1C(=O)c1c(O)c3c(c(O)c1C2=O)CC(O)(C(=O)CO)CC3OC1CC(NC(=O)C(CC(C)C)NC(=O)C(C)NC(=O)C(CC(C)C)NC(=O)CCNC(=O)CCC(=O)O)C(O)C(C)O1 [Suc-βALAL-dox, N-succinyl-beta-alanyl-L-leucyl-L-alanyl-L-leucyl-doxorubicin]
- Clinical benefit, share of evaluable patients ([3]; phase I clinical study (Delord et al., unpublished)): 59%
- Cardiac adverse events ([3]; phase I clinical study, even at very high cumulative doses (2750 mg/m^2)): No drug-related, severe cardiac adverse events were reported
- Dose at which myelotoxicity occurred compared with free doxorubicin ([3]; phase I clinical study): three times higher doses
- Cardiotoxicity compared with Dox [4]: significantly less cardiotoxic
- Times less toxic compared with unconjugated doxorubicin [5]: 3 times
- Times less toxic compared with unconjugated doxorubicin [6]: about 5 times
